Reference: patent US10487083B2, “Small molecule inhibitors of the JAK family of kinases” (Janssen Pharmaceutica NV, priority 2016, dated 2019)

Key:
[1] = MDCK-MDR1 permeability assay; type: in vitro ADME; details: MDCK-MDR1, pH 7.4; @ 5 μM, with P-gp inhibitor elacridar (2 μM); read-out: MDCK-MDR1 P^eapp(A-B)
Protocol: Permeability measurements were conducted according to the Cyprotex protocol using the MDCK-MDR1 cell line obtained from the NIH (Rockville, Md., USA). […] The cells in this assay form a cohesive sheet of a single cell layer filing the surface area of the culture dish, also known as a confluent monolayer, and on day four the test compound was added to the apical side of the membrane and the transport of the compound across the monolayer was monitored over a time period of 60 min.
Test compounds were dissolved in DMSO at a concentration of 10 mM. The dosing solutions were prepared by diluting test compound with assay buffer (Hanks Balanced Salt Solution), pH 7.4, at a final concentration of 5 μM. For assessment of apical to basolateral (“A-B”) permeability, buffer was removed from the apical compartment and replaced with test compound dosing solution with or without the permeability glycoprotein (“PgP”, “P-gP”, “Pgp” or “P-gp”) inhibitor elacridar (2 μM). For assessment of basolateral to apical (“B-A”) permeability, buffer was removed from the companion plate and replaced with test compound dosing solution. […] The permeability coefficient (Papp) for each compound was calculated from the following equation: Papp=(dQ/dt)/(C0×S), where dQ/dt is the rate of permeation of the drug across the cells, C0 is the donor compartment concentration at time zero, and S is the area of the cell monolayer. […]

[2] = Physical stability of crystalline embodiments of compound Ex. 1 (HT-XRPD/HR-XRPD after exposure); type: physicochemical; details: for physical stability after exposure to AAC: AAC 40° C./70% RH, two days; for physical stability in climate chamber: four days, HR-XRPD
Protocol: Long term slurry experiments were performed by suspending compound embodiment 1s in twenty neat solvents and stirred at room temperature for two weeks and at 50° C. for one week. Upon completion of the equilibration time, the residual solids were separated from the mother liquors. The solids were dried under ambient conditions and dried under vacuum (5 mBar) before being analyzed by HT-XRPD. Subsequently, the solids were exposed to accelerated aging conditions (40° C./70% relative humidity) for two days and again analyzed by HT-XRPD.
Embodiment 1s converted to hydrated embodiment 10 when it was exposed to 100% RH at 25° C. […] This behavior is attributable to an unequally strong binding of all the hydration/solvation molecules. In this case, embodiment 10 would have a less strongly bound second water molecule that would be lost under ambient conditions. More precisely, the physical stability of embodiment 1s was investigated in climate chambers by exposing a 20 mg sample of such embodiment to 40° C. and 70% relative humidity for four days, and another 20 mg sample of the same embodiment was exposed also for four days to 25° C. and 100% relative humidity. After four days, the various solid samples were analyzed by HR-XRPD, the crystal cell parameters were determined and the diffractograms were indexed. From bottom to top, the first diffractogram in FIG. 6 corresponds to embodiment 1s as starting material, and the second corresponds to the same form after a 4-day exposure to 40° C. and 70% relative humidity, noted as “1s 70 RH” in the same figure. […] Indexing for such form was not possible due to the small amount in which it was present. The third diffractogram corresponds to embodiment 1s after a 4-day exposure to 25° C. and 100% relative humidity, noted as “10” in the same figure. […] Upon dehydration, both embodiments is and 10 re-crystallized to the anhydrous form with a melting point of 148° C.

[3] = In vivo intracolonic (i.c.) dosing, plasma and colon concentrations (Protocol 3); design: species or system C57BL/6 mice; key to Plasma Concentration After i.c. Dosing, Mean: ^: Mean was not calculated as the values for all three mice were below the lower limit of quantitation; details: for Plasma Concentration After i.c. Dosing, Mean: 5 mg/kg intracolonic, female C57BL/6 mice; for systemic exposure after i.c. dosing: mice
Excerpt: Plasma and colon concentration results were obtained by following Protocol 1 using venipuncture of dorsal metatarsal vein bleed for Compounds (B), (C), and Examples 6 and 11. Plasma and colon concentration results were obtained by following Protocol 2 using retro-orbital bleed for Compounds (A), and Examples 1, and 3-5 and Protocol 2 using venipuncture of the dorsal metatarsal vein for Examples 2, 7-10, and 12. Plasma and colon concentration results were obtained by following Protocol 3 for Examples 1, 3 and 4. These protocols are described below under the heading In vivo Studies.
Intracolonic (IC) dose group: Following anesthesia with isoflurane by inhalation, three non-fasted female C57BL/6 mice were administered the compound intracolonically through a small incision in the abdominal wall using a syringe and needle at a dose of 5 mg/kg as a solution in 20% HPβCD at a dose volume of 1 mL/kg. Blood samples were collected at 0.5, 2, and 4 h post dose via retro-orbital bleed. Blood samples were collected into tubes containing anticoagulant (Heparin-Na) and placed on wet ice. The plasma fraction was separated by centrifugation and frozen at −20° C. for up to 4 h and −80° C. after 4 h unless analyzed shortly after sample collection. Colon samples were collected at 4 h post dose. From 2 cm below the cecum, a 4-cm sample of the colon was dissected, cut open on the longitudinal axis, and the solid contents removed by flushing with 2 mL of saline. The colon was further washed by putting it in 5 mL of saline and shaken for 5 seconds. The colon sample was then patted dry, weighed, and homogenized as 1 part tissue (g) to 4 parts HPLC grade water (mL). Concentrations of the compound in plasma and colon homogenate were determined using a qualified liquid chromatography-triple quadrupole mass spectrometry (LC-MS/MS) method. This protocol was used to evaluate IC dosing of the following test compounds: Examples 1, 3, and 4.

[4] = In vivo oral (p.o.) dosing, plasma and colon concentrations (Protocols 1 and 2); details: 25 mg/kg p.o., female C57BL/6 mice
Protocol: These protocols are described below under the heading In vivo Studies.
Three non-fasted female C57BL/6 mice were orally administered test compound at a dose of 25 mg/kg p.o. as a solution in 20% hydroxypropyl-beta-cyclodextrin (HPβCD) at a dose volume of 5 mL/kg. Blood samples were collected at 0.5, 2, and 4 h post dose via retro-orbital bleed or venipuncture of the dorsal metatarsal vein. Blood samples were collected into tubes containing anticoagulant (Heparin-Na) and placed on wet ice. The plasma fraction was separated by centrifugation and frozen at −20° C. for up to 4 h and −80° C. after 4 h unless analyzed shortly after sample collection. Colon samples were collected at 4 h post dose. […] Concentrations of the compound in plasma and colon homogenate were determined using a qualified liquid chromatography-triple quadrupole mass spectrometry (LC-MS/MS) method.
Three non-fasted female C57BL/6 mice were orally administered test compound at a dose of 25 mg/kg p.o. as a solution in 20% HPβCD at a dose volume of 5 mL/kg. […] The plasma fraction was separated by centrifugation and frozen at −20° C. for up to 4 h and −80° C. after 4 h unless analyzed shortly after sample collection. […] Concentrations of the compound in plasma and colon homogenate were determined using a qualified liquid chromatography-triple quadrupole mass spectrometry (LC-MS/MS) method.

C[C@@H](O)c1nc2cnc3[nH]ccc3c2n1[C@H]1CC[C@H](CC#N)CC1 [C]
Papp A→B [1]: 2.5 ×10⁻⁶ cm/s

CC(C)(O)CNC(=O)Cc1nc2cnc3[nH]ccc3c2n1[C@H]1CC[C@H](CC#N)CC1 [Embodiment 4]
physical stability under ambient conditions [2]: did not appear to be physically stable

CC(C)(O)CNC(=O)Cc1nc2cnc3[nH]ccc3c2n1[C@H]1CC[C@H](CC#N)CC1 [Embodiment 5]
physical stability after exposure to AAC [2]: physically unstable

CC(C)(O)CNC(=O)Cc1nc2cnc3[nH]ccc3c2n1[C@H]1CC[C@H](CC#N)CC1 [Embodiment 6]
physical stability after exposure to AAC [2]: stable solid form

CC(C)(O)CNC(=O)Cc1nc2cnc3[nH]ccc3c2n1[C@H]1CC[C@H](CC#N)CC1 [Embodiment 7]
physical stability after exposure to AAC [2]: physically stable

CC(C)(O)CNC(=O)Cc1nc2cnc3[nH]ccc3c2n1[C@H]1CC[C@H](CC#N)CC1 [Ex. 1, 2-(1-((1r,4r)-4-(Cyanomethyl)cyclohexyl)-1,6-dihydroimidazo[4,5-d]pyrrolo[2,3-b]pyridin-2-yl)-N-(2-hydroxy-2-methylpropyl)acetamide]
Plasma Concentration After i.c. Dosing, Mean ([3]; Time = 2 h): ^
Plasma Concentration After i.c. Dosing, Mean ([3]; Time = 4 h): ^
systemic exposure after i.c. dosing [3]: low systemic exposures

N#CC[C@H]1CC[C@H](n2c(CC(=O)NCC3CC3)nc3cnc4[nH]ccc4c32)CC1 [Ex. 3, 2-(1-((1r,4r)-4-(Cyanomethyl)cyclohexyl)-1,6-dihydroimidazo[4,5-d]pyrrolo[2,3-b]pyridin-2-yl)-N-(cyclopropylmethyl)acetamide]
Plasma Concentration After i.c. Dosing, Mean ([3]; Time = 2 h): ^
Plasma Concentration After i.c. Dosing, Mean ([3]; Time = 4 h): ^
systemic exposure after i.c. dosing [3]: low systemic exposures

N#CCCNC(=O)Cc1nc2cnc3[nH]ccc3c2n1[C@H]1CC[C@H](CC#N)CC1 [Ex. 4, N-(2-Cyanoethyl)-2-(1-((1r,4r)-4-(cyanomethyl)cyclohexyl)-1,6-dihydroimidazo[4,5-d]pyrrolo[2,3-b]pyridin-2-yl)acetamide]
Plasma Concentration After i.c. Dosing, Mean ([3]; Time = 4 h): ^
systemic exposure after i.c. dosing [3]: low systemic exposures

N#CC[C@H]1CC[C@H](n2c(CC(=O)Nc3cc[nH]n3)nc3cnc4[nH]ccc4c32)CC1 [Ex. 11, 2-(1-((1r,4r)-4-(Cyanomethyl)cyclohexyl)-1,6-dihydroimidazo[4,5-d]pyrrolo[2,3-b]pyridin-2-yl)-N-(1H-pyrazol-3-yl)acetamide]
Plasma Concentration After p.o. Dosing, Mean ([4]; Time = 2 h): ^
Plasma Concentration After p.o. Dosing, Mean ([4]; Time = 4 h): ^

CC(C)(O)CNC(=O)Cc1nc2cnc3[nH]ccc3c2n1[C@H]1CC[C@H](CC#N)CC1 [embodiment 1s]
physical stability in climate chamber ([2]; 25° C. and 100% relative humidity): conversion of embodiment 1s into embodiment 10
physical stability in climate chamber ([2]; 40° C. and 70% relative humidity): initial embodiment 1s had been recovered

CC(C)(O)CNC(=O)Cc1nc2cnc3[nH]ccc3c2n1[C@H]1CC[C@H](CC#N)CC1 [embodiment 2]
physical stability after exposure to AAC [2]: converted to embodiment 3e

CC(C)(O)CNC(=O)Cc1nc2cnc3[nH]ccc3c2n1[C@H]1CC[C@H](CC#N)CC1 [embodiment 10]
physical stability under ambient conditions [2]: physically not stable
